pIC50: −log10 of the molar value.
System: tracheae from guinea pigs
Assay: passive Shultz-Dale reaction (broncho-dilative activity), relaxation of antigen-contracted tracheal strips
Parameters: species or system Male Hartley guinea pigs
Conditions: Cavia porcellus; concentration of 50% relaxation; passively sensitized guinea pig tracheal zig-zag strips, 37° C., antigen (egg white albumin) 1 μg/ml
Method: Effect on passive Shultz-Dale reaction (broncho-dilative activity)
Male Hartley guinea pigs weighing 350 to 500 g were passively sensitized by intraperitoneal injection of rabbit anti-OA serum prepared in advance by the method of Koda et al. [Folia Pharmacol., Japon 66, 237, (1970)]. After 24 hours, tracheae were removed from guinea pigs and used for experiment. The zig-zag strips of the tracheae were prepared by the method of Emmerson and Mackay [J. Pharm. Pharmacol., 31, 798, (1979)]. The strips were suspended in Krebs-Henseleit solution at 37° C. under aeration of a mixed gas of 95% oxygen and 5% carbon dioxide, and equilibrated for one hour. Then, antigen (egg white albumin) was introduced in the solution (final concentration; 1 μg/ml), and the contraction was measured by isotonic transducer (TD-112s, made by Nihon Kohden K. K., Japan) and recorded on a recorder (Type 3066, made by Yokogawa-Hokushin Denki, K. K. Japan). After the contraction curves reached a plateau, the test compounds were successively added in order to get cumulative concentration-relaxation curves. The concentration of 50% relaxation rate (IC50) was calculated from the regression line, which was obtained from the cumulative concentration-relaxation curves.

S=c1c2[nH]cnc2c2cccnc2n1-c1ccccc1 [Compound 1, 5-Phenyl-3H-imidazo[4,5-c][1,8]naphthyridin-4(5H)-thione]
pIC50: 5.32

— patent publication US5484924A, “Imidazonaphthyridine derivatives” (Kyowa Hakko Kogyo Co., Ltd., priority 1991, dated 1996)
